Experimental findings from ChEMBL document CHEMBL4373736, “Synthesis and biological evaluation of panaxatriol derivatives against myocardial ischemia/reperfusion injury in the rat” (Eur J Med Chem, 2020) are described below.

Molecules are shown by their SMILES.

Data set [1] has as its system Cardiac muscle cell. As to the kind of experiment: Cytoprotective activity against OGD/reperfusion induced injury in Sprague-Dawley rat cardiomyocytes assessed as effect on cell viability at 10 uM pretreated for 24 hrs followed by OGD for 2 hrs and subsequent reperfusion for 24 hrs (reference value: 43.9 to 45.4 +/- 1.1 %). The class given is functional.
For data set [2], the system named is Cardiac muscle cell. As to the kind of experiment: Cytoprotective activity against OGD/reperfusion induced injury in Sprague-Dawley rat cardiomyocytes assessed as effect on cell viability at 1 uM pretreated for 24 hrs followed by OGD for 2 hrs and subsequent reperfusion for 24 hrs (reference value: 43.9 to 45.4 +/- 1.1 %). It is filed as functional.
Data set [3] has as its system Cardiac muscle cell. As to the kind of experiment: Cytotoxicity against Sprague-Dawley rat cardiomyocytes assessed as inhibition of cell growth at 10 uM treated for 50 hrs by MTT assay. It is filed as cell-based. (Tetrazolium assays rely on reduction of a dye to a coloured formazan, in cell work by metabolically active cells.)
The subject of data set [4] is Cardiac muscle cell. As to the kind of experiment: Cytoprotective activity against OGD/reperfusion induced injury in Sprague-Dawley rat cardiomyocytes assessed as effect on cell viability at 0.1 uM pretreated for 24 hrs followed by OGD for 2 hrs and subsequent reperfusion for 24 hrs (reference value: 43.9 to 45.4 +/- 1.1 %). It is filed as functional.

As for `CNc1nc2c(s1)C[C@]1(C)[C@H]3C[C@@H](O)[C@@H]4[C@@H]([C@@]5(C)CCCC(C)(C)O5)CC[C@@]4(C)[C@]3(C)CC(=O)[C@H]1C2(C)C`, the Activity in the data set with Cardiac muscle cell [1] is 58.8%; in the data set on Cardiac muscle cell [2], 52.7%; with Cardiac muscle cell [3], “Non-Toxic”; with Cardiac muscle cell [4], 47%.

For the compound `CC1(C)CCC[C@](C)([C@H]2CC[C@]3(C)[C@@H]2[C@H](O)C[C@@H]2[C@@]4(C)Cc5sc(N)nc5C(C)(C)[C@@H]4[C@@H](O)C[C@]23C)O1`, the Activity in the data set on Cardiac muscle cell [1] is given as 62.4%; in the data set on Cardiac muscle cell [2], 57.6%; in the data set on Cardiac muscle cell [3], “Non-Toxic”; in the data set on Cardiac muscle cell [4] it was 52.4%.

In the case of `CC1(C)CCC[C@](C)([C@H]2CC[C@]3(C)[C@@H]2[C@H](O)C[C@@H]2[C@@]4(C)Cc5c(CO)nn(-c6ccccc6)c5C(C)(C)[C@@H]4[C@H](O)C[C@]23C)O1`, the Activity in the data set on Cardiac muscle cell [1] is recorded as 61.2%; in the data set with Cardiac muscle cell [2] it was 56.6%; in the data set on Cardiac muscle cell [3], “Non-Toxic”; in the data set with Cardiac muscle cell [4], 51.6%.

With `CC1(C)CCC[C@](C)([C@H]2CC[C@]3(C)[C@@H]2[C@H](O)C[C@@H]2[C@@]4(C)Cc5c(n[nH]c5C(F)(F)F)C(C)(C)[C@@H]4[C@H](O)C[C@]23C)O1`, the Activity in the data set on Cardiac muscle cell [1] is reported as 76.4%; with Cardiac muscle cell [2], 67.6%; in the data set with Cardiac muscle cell [3], “Non-Toxic”; in the data set with Cardiac muscle cell [4], 60.2%.

Regarding `CC1(C)CCC[C@](C)([C@H]2CC[C@]3(C)[C@@H]2[C@H](O)C[C@@H]2[C@@]4(C)Cc5sc(CC#N)nc5C(C)(C)[C@@H]4C(=O)C[C@]23C)O1`, the Activity in the data set on Cardiac muscle cell [1] is given as 70.1%; in the data set with Cardiac muscle cell [2], 64.6%; with Cardiac muscle cell [3] it was “Non-Toxic”; with Cardiac muscle cell [4], 58.6%.

`CC1(C)CCC[C@](C)([C@H]2CC[C@]3(C)[C@@H]2[C@H](O)C[C@@H]2[C@@]4(C)Cc5c[nH]nc5C(C)(C)[C@@H]4[C@H](O)C[C@]23C)O1`: the Activity in the data set on Cardiac muscle cell [1] was 61.7%; in the data set on Cardiac muscle cell [2], 55.9%; in the data set with Cardiac muscle cell [3], “Non-Toxic”; with Cardiac muscle cell [4] it was 48.6%.

For `CC1(C)CCC[C@](C)([C@H]2CC[C@]3(C)[C@@H]2[C@H](O)C[C@@H]2[C@@]4(C)Cc5nccnc5C(C)(C)[C@@H]4[C@@H](O)C[C@]23C)O1`, the Activity in the data set on Cardiac muscle cell [1] is on record as 70.3%; with Cardiac muscle cell [2], 62.3%; in the data set with Cardiac muscle cell [3], “Non-Toxic”; in the data set with Cardiac muscle cell [4] it was 54.9%.

In the case of `COc1ccc2[nH]c3c(c2c1)C[C@]1(C)[C@H]2C[C@@H](O)[C@@H]4[C@@H]([C@@]5(C)CCCC(C)(C)O5)CC[C@@]4(C)[C@]2(C)CC(=O)[C@H]1C3(C)C`, the Activity with Cardiac muscle cell [1] is given as 88%; in the data set with Cardiac muscle cell [2], 79.6%; in the data set with Cardiac muscle cell [3], “Non-Toxic”; in the data set with Cardiac muscle cell [4] it was 70.1%.

For `CCOC(=O)c1[nH]nc2c1C[C@]1(C)[C@H]3C[C@@H](O)[C@@H]4[C@@H]([C@@]5(C)CCCC(C)(C)O5)CC[C@@]4(C)[C@]3(C)C[C@@H](O)[C@H]1C2(C)C`, the Activity with Cardiac muscle cell [1] was 60.4%; in the data set with Cardiac muscle cell [2], 54.1%; with Cardiac muscle cell [3], “Non-Toxic”; in the data set on Cardiac muscle cell [4], 48%.

With `CC1(C)CCC[C@](C)([C@H]2CC[C@]3(C)[C@@H]2[C@H](O)C[C@@H]2[C@@]4(C)Cc5c([nH]c6ccccc56)C(C)(C)[C@@H]4C(=O)C[C@]23C)O1`, the Activity is listed as 71.1% with Cardiac muscle cell [1], 64.3% in the data set with Cardiac muscle cell [2], “Non-Toxic” in the data set on Cardiac muscle cell [3] and 56.9% in the data set with Cardiac muscle cell [4].

Take `CC1(C)CCC[C@](C)([C@H]2CC[C@]3(C)[C@@H]2[C@H](O)C[C@@H]2[C@@]4(C)Cc5sc(Br)nc5C(C)(C)[C@@H]4C(=O)C[C@]23C)O1`: the Activity is 77.2% in the data set with Cardiac muscle cell [1], 69.2% in the data set on Cardiac muscle cell [2], “Non-Toxic” with Cardiac muscle cell [3] and 59.5% in the data set on Cardiac muscle cell [4].
